According to patent US11452717B2, “Small molecule activators of nicotinamide phosphoribosyltransferase (NAMPT) and uses thereof” (Sanford Burnham Prebys Medical Discovery Institute, priority 2017, dated 2022):
pEC50: −log10 of the molar value.

What follows are compounds tested against NAMPT enzyme (Homo sapiens (Human), UniProt P43490) (assay: Enzyme Assay and NMN Detection (NAMPT reaction, fluorescence detection of NMN)). Details: Table B-1; NAMPT activation, NMN formation.
Sequence of NAMPT enzyme (P43490 whole entry, species assumed): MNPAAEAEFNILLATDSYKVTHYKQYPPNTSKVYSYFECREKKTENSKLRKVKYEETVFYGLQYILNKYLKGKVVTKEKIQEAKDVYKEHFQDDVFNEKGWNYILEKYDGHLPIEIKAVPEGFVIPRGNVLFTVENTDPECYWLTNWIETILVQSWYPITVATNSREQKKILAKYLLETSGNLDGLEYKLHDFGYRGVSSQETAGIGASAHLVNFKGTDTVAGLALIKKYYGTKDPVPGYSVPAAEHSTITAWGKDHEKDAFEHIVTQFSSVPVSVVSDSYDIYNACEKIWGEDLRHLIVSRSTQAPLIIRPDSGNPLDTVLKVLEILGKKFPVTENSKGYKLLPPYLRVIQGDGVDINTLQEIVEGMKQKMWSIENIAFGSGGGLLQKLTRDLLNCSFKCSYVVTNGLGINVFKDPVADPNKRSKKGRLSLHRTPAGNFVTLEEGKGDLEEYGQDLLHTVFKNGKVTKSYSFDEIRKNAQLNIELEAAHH
Format: biochemical
Outline: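 NMN formed was read at ex380/em460 after acetophenone/KOH derivatization and formic acid addition, using a same-day calibration curve. Final conditions: NAMPT 16 nM, nicotinamide 5 uM, PRPP 6.25 uM, ATP 120 uM, pyrophosphatase 0.04 U/ml, pH 7.5 HEPES buffer with MgCl2 and TCEP, 2 h at room temperature.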
In the case of `CC(C)N(Cc1ccccc1)S(=O)(=O)c1ccc(NC(=O)NCc2nccs2)cc1` [N-Benzyl-N-isopropyl-4-(3-thiazol-2-ylmethyl-ureido)-benzenesulfonamide], the pEC50 was under 4.70. In the case of `CC(C)N(Cc1ccccc1)S(=O)(=O)c1ccc(NC(=O)NCc2cncs2)cc1` [N-Benzyl-N-isopropyl-4-(3-thiazol-5-ylmethyl-ureido)-benzenesulfonamide], the pEC50 was over 7.00. Compound `CC(C)N(Cc1ccccc1)S(=O)(=O)c1ccc(NC(=O)NCc2cn[nH]c2)cc1` [N-Benzyl-N-isopropyl-4-[3-(1H-pyrazol-4-ylmethyl)-ureido]-benzenesulfonamide] has a pEC50 of over 7.00. In the case of `O=C(NCc1cn[nH]c1)Nc1ccc(S(=O)(=O)NCC2CCC2)cc1` [N-Cyclobutylmethyl-4-[3-(1H-pyrazol-4-ylmethyl)-ureido]-benzenesulfonamide], the pEC50 was 5.70 to 7.00. `CN(C1CCCC1)S(=O)(=O)c1ccc(NC(=O)NCc2cn[nH]c2)cc1` [N-Cyclopentyl-N-methyl-4-[3-(1H-pyrazol-4-ylmethyl)-ureido]-benzenesulfonamide] gave a pEC50 of 5.70 to 7.00. Work on `O=C(NCc1cn[nH]c1)Nc1ccc(S(=O)(=O)Nc2ccccc2)cc1` [N-Phenyl-4-[3-(1H-pyrazol-4-ylmethyl)-ureido]-benzenesulfonamide] yielded a pEC50 of 5.70 to 7.00. Work on `O=C(NCc1cnco1)Nc1ccc(NS(=O)(=O)c2ccccc2)cc1` [N-[4-(3-Oxazol-5-ylmethyl-ureido)-phenyl]-benzenesulfonamide] yielded a pEC50 of 5.70 to 7.00.

Same assay, conditions: Table B-2; NAMPT activation, NMN formation
`CC(C)N(Cc1ccccc1)S(=O)(=O)c1ccc(NC(=O)NCc2ccncc2)cc1` [N-Benzyl-N-isopropyl-4-(3-pyridin-4-ylmethyl-ureido)-benzenesulfonamide] was tested, and the pEC50 was over 7.00. Work on `O=C(NCc1ccncc1)Nc1ccc(S(=O)(=O)N(Cc2ccccc2)c2ccccc2)cc1` [N-Benzyl-N-phenyl-4-(3-pyridin-4-ylmethyl-ureido)-benzenesulfonamide] yielded a pEC50 of 5.70 to 7.00. `CCCN(Cc1ccccc1)S(=O)(=O)c1ccc(NC(=O)NCc2ccncc2)cc1` [N-Benzyl-N-propyl-4-(3-pyridin-4-ylmethyl-ureido)-benzenesulfonamide] was tested, and the pEC50 was over 7.00. With `O=C(NCc1ccncc1)Nc1ccc(S(=O)(=O)NC2CCC2)cc1` [N-Cyclobutyl-4-(3-pyridin-4-ylmethyl-ureido)-benzenesulfonamide] the pEC50 was 5.70 to 7.00. With `O=C(NCc1ccncc1)Nc1ccc(S(=O)(=O)NCC2CCC2)cc1` [N-Cyclobutylmethyl-4-(3-pyridin-4-ylmethyl-ureido)-benzenesulfonamide] the pEC50 was 5.70 to 7.00. In the case of `CN(CC1CCC1)S(=O)(=O)c1ccc(NC(=O)NCc2ccncc2)cc1` [N-Cyclobutylmethyl-N-methyl-4-(3-pyridin-4-ylmethyl-ureido)-benzenesulfonamide], the pEC50 was 5.70 to 7.00. With `O=C(NCc1ccncc1)Nc1ccc(S(=O)(=O)NC2CCCCC2)cc1` [N-Cyclohexyl-4-(3-pyridin-4-ylmethyl-ureido)-benzenesulfonamide] the pEC50 was 5.70 to 7.00. `CN(C1CCCCC1)S(=O)(=O)c1ccc(NC(=O)NCc2ccncc2)cc1` [N-Cyclohexyl-N-methyl-4-(3-pyridin-4-ylmethyl-ureido)-benzenesulfonamide] was tested, and the pEC50 was 5.70 to 7.00. `CC(C)CN(C1CCCC1)S(=O)(=O)c1ccc(NC(=O)NCc2ccncc2)cc1` [N-Cyclopentyl-N-isobutyl-4-(3-pyridin-4-ylmethyl-ureido)-benzenesulfonamide] showed a pEC50 of over 7.00. `CN(C1CCCC1)S(=O)(=O)c1ccc(NC(=O)NCc2ccncc2)cc1` [N-Cyclopentyl-N-methyl-4-(3-pyridin-4-ylmethyl-ureido)-benzenesulfonamide] gave a pEC50 of 5.70 to 7.00. `O=C(NCc1ccncc1)Nc1ccc(S(=O)(=O)NC2CC2)cc1` [N-Cyclopropyl-4-(3-pyridin-4-ylmethyl-ureido)-benzenesulfonamide] gave a pEC50 of 5.30 to 5.70. For `O=C(NCc1ccncc1)Nc1ccc(S(=O)(=O)NCC2CC2)cc1` [N-Cyclopropylmethyl-4-(3-pyridin-4-ylmethyl-ureido)-benzenesulfonamide], the pEC50 was 5.70 to 7.00. For `CC(C)NC(=O)c1ccc(NC(=O)NCc2ccncc2)cc1` [N-Isopropyl-4-(3-(pyridin-4-ylmethyl)ureido)benzamide], the pEC50 was 5.70 to 7.00. Compound `CC(C)NS(=O)(=O)c1ccc(NC(=O)NCc2ccncc2)cc1` [N-Isopropyl-4-(3-pyridin-4-ylmethyl-ureido)-benzenesulfonamide] has a pEC50 of 5.70 to 7.00. `CC(C)N(c1ccc(NC(=O)NCc2ccncc2)cc1)S(=O)(=O)Cc1ccccc1` [N-Isopropyl-C-phenyl-N-[4-(3-pyridin-4-ylmethyl-ureido)-phenyl]-methanesulfonamide] showed a pEC50 of 5.30 to 5.70. `CC(C)N(c1ccc(NC(=O)NCc2ccncc2)cc1)S(=O)(=O)c1ccccc1` [N-Isopropyl-N-[4-(3-pyridin-4-ylmethyl-ureido)-phenyl]-benzenesulfonamide] gave a pEC50 of 5.30 to 5.70. For `CN(Cc1ccccc1OC(F)(F)F)S(=O)(=O)c1ccc(NC(=O)NCc2ccncc2)cc1` [N-Methyl-4-(3-pyridin-4-ylmethyl-ureido)-N-(2-trifluoromethoxy-benzyl)-benzenesulfonamide], the pEC50 was over 7.00. Compound `CNS(=O)(=O)c1ccc(NC(=O)NCc2ccncc2)cc1` [N-Methyl-4-(3-pyridin-4-ylmethyl-ureido)-benzenesulfonamide] has a pEC50 of 5.30 to 5.70. Compound `Cc1ccccc1CN(C)S(=O)(=O)c1ccc(NC(=O)NCc2ccncc2)cc1` [N-Methyl-N-(2-methyl-benzyl)-4-(3-pyridin-4-ylmethyl-ureido)-benzenesulfonamide] has a pEC50 of over 7.00. Work on `CN(c1ccc(NC(=O)NCc2ccncc2)cc1)S(=O)(=O)c1ccccc1` [N-Methyl-N-[4-(3-pyridin-4-ylmethyl-ureido)-phenyl]-benzenesulfonamide] yielded a pEC50 of 5.70 to 7.00. Work on `CN(c1ccccc1)S(=O)(=O)Cc1ccc(NC(=O)NCc2ccncc2)cc1` [N-Methyl-N-phenyl-C-[4-(3-pyridin-4-ylmethyl-ureido)-phenyl]-methanesulfonamide] yielded a pEC50 of 5.70 to 7.00. Compound `O=C(NCc1ccncc1)Nc1ccc(S(=O)(=O)Nc2ccccc2)cc1` [N-Phenyl-4-(3-pyridin-4-ylmethyl-ureido)-benzenesulfonamide] has a pEC50 of 5.70 to 7.00. In the case of `O=C(NCc1ccncc1)Nc1ccc(CS(=O)(=O)Nc2ccccc2)cc1` [N-Phenyl-C-[4-(3-pyridin-4-ylmethyl-ureido)-phenyl]-methanesulfonamide], the pEC50 was 5.70 to 7.00. In the case of `CCCNS(=O)(=O)c1ccc(NC(=O)NCc2ccncc2)cc1` [N-Propyl-4-(3-pyridin-4-ylmethyl-ureido)-benzenesulfonamide], the pEC50 was 5.70 to 7.00. In the case of `O=C(NCc1ccncc1)Nc1ccc(S(=O)(=O)Nc2ccccn2)cc1` [N-Pyridin-2-yl-4-(3-pyridin-4-ylmethyl-ureido)-benzenesulfonamide], the pEC50 was under 4.70. Compound `O=C(NCc1ccncc1)Nc1ccc(S(=O)(=O)NCc2ccncc2)cc1` [N-Pyridin-4-ylmethyl-4-(3-pyridin-4-ylmethyl-ureido)-benzenesulfonamide] has a pEC50 of 5.70 to 7.00. Compound `CN1CCN(CCNS(=O)(=O)c2ccc(NC(=O)NCc3ccncc3)cc2)CC1` [N-[2-(4-Methyl-piperazin-1-yl)-ethyl]-4-(3-pyridin-4-ylmethyl-ureido)-benzenesulfonamide] has a pEC50 of 5.70 to 7.00. Work on `O=C(NCc1ccccc1)Nc1ccc(NS(=O)(=O)Cc2ccccc2)cc1` [N-[4-(3-Benzyl-ureido)-phenyl]-C-phenyl-methanesulfonamide] yielded a pEC50 of over 7.00. `O=C(NCc1ccncc1)Nc1ccc(NS(=O)(=O)c2ccccc2)cc1` [N-[4-(3-Pyridin-4-ylmethyl-ureido)-phenyl]-benzenesulfonamide] was tested, and the pEC50 was over 7.00. With `O=C(NCc1ccncc1)Nc1cccc(S(=O)(=O)NCc2ccccc2)c1` [N-benzyl-3-(3-(pyridin-4-ylmethyl)ureido)benzenesulfonamide] the pEC50 was 4.70 to 5.30. `CN(Cc1ccccc1)C(=O)c1ccc(NC(=O)NCc2ccncc2)cc1` [N-benzyl-N-methyl-4-(3-(pyridin-4-ylmethyl)ureido)benzamide] was tested, and the pEC50 was 5.70 to 7.00. `CCCCNC(=O)c1ccc(NC(=O)NCc2ccncc2)cc1` [N-butyl-4-(3-(pyridin-4-ylmethyl)ureido)benzamide] gave a pEC50 of 5.70 to 7.00. `O=C(NCc1ccncc1)Nc1ccc(C(=O)NC2CCC2)cc1` [N-cyclobutyl-4-(3-(pyridin-4-ylmethyl)ureido)benzamide] showed a pEC50 of 4.70 to 5.30. `O=C(NCc1ccncc1)Nc1ccc(C(=O)NC2CCCCC2)cc1` [N-cyclohexyl-4-(3-(pyridin-4-ylmethyl)ureido)benzamide] showed a pEC50 of 5.30 to 5.70. `O=C(NCc1ccncc1)Nc1cccc(S(=O)(=O)NC2CCCC2)c1` [N-cyclopentyl-3-(3-(pyridin-4-ylmethyl)ureido)benzenesulfonamide] gave a pEC50 of under 4.70. `O=C(NCc1ccncc1)Nc1ccc(C(=O)NC2CCCC2)cc1` [N-cyclopentyl-4-(3-(pyridin-4-ylmethyl)ureido)benzamide] was tested, and the pEC50 was 4.70 to 5.30. Compound `O=C(NCc1ccncc1)Nc1ccc(S(=O)(=O)NC2CCCC2)cc1` [N-cyclopentyl-4-(3-pyridin-4-ylmethyl-ureido)-benzenesulfonamide] has a pEC50 of 5.70 to 7.00. `CCN(C)C(=O)c1ccc(NC(=O)NCc2ccncc2)cc1` [N-ethyl-N-methyl-4-(3-(pyridin-4-ylmethyl)ureido)benzamide] showed a pEC50 of 4.70 to 5.30. `CC(C)CNC(=O)c1ccc(NC(=O)NCc2ccncc2)cc1` [N-isobutyl-4-(3-(pyridin-4-ylmethyl)ureido)benzamide] showed a pEC50 of 5.70 to 7.00. For `CN(Cc1ccccc1C(F)(F)F)S(=O)(=O)c1ccc(NC(=O)NCc2ccncc2)cc1` [N-methyl-4-(3-(pyridin-4-ylmethyl)ureido)-N-(2-(trifluoromethyl)benzyl)benzenesulfonamide], the pEC50 was over 7.00.

Same assay, conditions: Table B-6; NAMPT activation, NMN formation
For `Cc1cccc(CS(=O)(=O)Nc2ccc(NC(=O)NCc3ccncc3)cc2)c1` [N-[4-(3-Pyridin-4-ylmethyl-ureido)-phenyl]-C-m-tolyl-methanesulfonamide], the pEC50 was over 7.00. Compound `Cc1ccc(CS(=O)(=O)Nc2ccc(NC(=O)NCc3ccncc3)cc2)cc1` [N-[4-(3-Pyridin-4-ylmethyl-ureido)-phenyl]-C-p-tolyl-methanesulfonamide] has a pEC50 of over 7.00.
